# Tests used:
# R0-3306 = compound: C1=CC2=C(C=CC(=C2)C=C3C(=O)NC(=NCC4=CC=CS4)S3)N=C1 [R0-3306]
# Paclitaxel = compound: CC(=O)O[C@H]1C(=O)[C@@]2(C)[C@H]([C@H](OC(=O)c3ccccc3)[C@]3(O)C[C@H](OC(=O)[C@H](O)[C@@H](NC(=O)c4ccccc4)c4ccccc4)C(C)=C1C3(C)C)[C@]1(OC(C)=O)CO[C@@H]1C[C@@H]2O [Paclitaxel]
# BSJ-03-123 [1] = compound: T1, CC(=O)c1c(C)c2cnc(Nc3ccc(N4CCN(CCOCCOCCOCCNC(=O)COc5cccc6c5C(=O)N(C5CCC(=O)NC5=O)C6=O)CC4)cn3)nc2n(C2CCCC2)c1=O [BSJ-03-123]
# BVD523 = compound: CC(C)Nc1cc(-c2c[nH]c(C(=O)N[C@H](CO)c3cccc(Cl)c3)c2)c(Cl)cn1 [BVD523]
# [2] = compound: CCC1=CN=CN=C1N2CCN(CC2)CC3=NC4=C(N3)C=C(C=C4)C(F)(F)F
# Neratinib/HKI272 = compound: CCOc1cc2ncc(C#N)c(Nc3ccc(OCc4ccccn4)c(Cl)c3)c2cc1NC(=O)/C=C/CN(C)C [Neratinib/HKI272]
# Flavopiridol [3] = compound: T2, CN1CC[C@H](c2c(O)cc(O)c3c(=O)cc(-c4ccccc4Cl)oc23)[C@H](O)C1 [Flavopiridol]
# [4] = compound: CO[C@@H](C)Cn1c(=O)n(C)c2cnc3ccc(-c4cncc(C(C)(C)O)c4)cc3c21
# AZD5363 = compound: NC1(C(=O)N[C@@H](CCO)c2ccc(Cl)cc2)CCN(c2nc[nH]c3nccc2-3)CC1 [AZD5363]
# YKL-5-124 = compound: C=CC(=O)Nc1ccc(C(=O)Nc2[nH]nc3c2CN(C(=O)N[C@H](CN(C)C)c2ccccc2)C3(C)C)cc1 [YKL-5-124]; assay: GR value, 72 h; higher = faster growth (1 = untreated, <0 = killing);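 note: breast cancer and non-malignant breast epithelial lines, nine half-log doses, viable cells counted by Hoechst and LIVE/DEAD dye imaging versus time-zero plates and DMSO controls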
# BSJ-03-123 [5] = compound: T1, BSJ-03-123; assay: as above
# [6] = compound: CCN1CCN(Cc2ccc(Nc3ncc(F)c(-c4cc(F)c5nc(C)n(C(C)C)c5c4)n3)nc2)CC1; assay: as above
# [7] = compound: CCc1cnn2c(NCc3ccc[n+]([O-])c3)cc(N3CCCC[C@H]3CCO)nc12; assay: as above
# LEE011/Ribociclib = compound: CN(C)C(=O)c1cc2cnc(Nc3ccc(N4CCNCC4)cn3)nc2n1C1CCCC1 [LEE011/Ribociclib]; assay: as above
# THZ531 = compound: CN(C)C/C=C/C(=O)Nc1ccc(C(=O)N2CCC[C@@H](Nc3ncc(Cl)c(-c4c[nH]c5ccccc45)n3)C2)cc1 [THZ531]; assay: as above
# THZ1 = compound: CN(C)C/C=C/C(=O)Nc1ccc(C(=O)Nc2cccc(Nc3ncc(Cl)c(-c4c[nH]c5ccccc45)n3)c2)cc1 [THZ1]; assay: as above
# Flavopiridol [8] = compound: T2, Flavopiridol; assay: as above
# 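Throughout, for GR50, 72 h: breast cancer and non-malignant breast epithelial cell lines, Deep Dye Drop or Dye Drop imaging, nine half-log doses, GR normalized to time-zero plates and DMSO-only controls.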
cell line,measurement,setting,value
184A1,"GR50, 72 h",R0-3306,2.78 µM
same,"GR50, 72 h",Paclitaxel,0.00313 µM
same,"GR50, 72 h",BSJ-03-123 [1],0.00892 µM
same,"GR50, 72 h",BVD523,0.00782 µM
same,"GR50, 72 h",[2],> 10 µM
same,"GR50, 72 h",Neratinib/HKI272,0.0293 µM
same,"GR50, 72 h",Flavopiridol [3],0.0383 µM
same,"GR50, 72 h",[4],0.00147 µM
same,"GR50, 72 h",AZD5363,> 10 µM
same,GR value,YKL-5-124; 0.001 µM,0.287 GR
same,GR value,YKL-5-124; 0.003162 µM,0.204 GR
same,GR value,YKL-5-124; 0.01 µM,0.116 GR
same,GR value,YKL-5-124; 0.03162 µM,0.07 GR
same,GR value,YKL-5-124; 0.1 µM,0.0439 GR
same,GR value,YKL-5-124; 0.3162 µM,0.0314 GR
same,GR value,YKL-5-124; 1 µM,0.0278 GR
same,GR value,YKL-5-124; 3.162 µM,-0.0126 GR
same,GR value,YKL-5-124; 10 µM,-0.0798 GR
same,GR value,BSJ-03-123 [5]; 0.001 µM,0.716 GR
same,GR value,BSJ-03-123 [5]; 0.003162 µM,0.636 GR
same,GR value,BSJ-03-123 [5]; 0.01 µM,0.521 GR
same,GR value,BSJ-03-123 [5]; 0.03162 µM,0.296 GR
same,GR value,BSJ-03-123 [5]; 0.1 µM,0.243 GR
same,GR value,BSJ-03-123 [5]; 0.3162 µM,0.145 GR
same,GR value,BSJ-03-123 [5]; 1 µM,0.114 GR
same,GR value,BSJ-03-123 [5]; 3.162 µM,0.101 GR
same,GR value,BSJ-03-123 [5]; 10 µM,-0.139 GR
same,GR value,[6]; 0.001 µM,0.939 GR
same,GR value,[6]; 0.003162 µM,0.858 GR
same,GR value,[6]; 0.01 µM,0.69 GR
same,GR value,[6]; 0.03162 µM,0.413 GR
same,GR value,[6]; 0.1 µM,0.267 GR
same,GR value,[6]; 0.3162 µM,0.13 GR
same,GR value,[6]; 1 µM,0.0708 GR
same,GR value,[6]; 3.162 µM,0.0774 GR
same,GR value,[6]; 10 µM,-0.105 GR
same,GR value,[7]; 0.0001 µM,1.04 GR
same,GR value,[7]; 0.0003162 µM,1.05 GR
same,GR value,[7]; 0.001 µM,1.04 GR
same,GR value,[7]; 0.003162 µM,0.865 GR
same,GR value,[7]; 0.01 µM,0.401 GR
same,GR value,[7]; 0.03162 µM,-0.275 GR
same,GR value,[7]; 0.1 µM,-0.222 GR
same,GR value,[7]; 0.3162 µM,-0.306 GR
same,GR value,[7]; 1 µM,-0.346 GR
same,GR value,LEE011/Ribociclib; 0.001 µM,0.846 GR
same,GR value,LEE011/Ribociclib; 0.003162 µM,0.792 GR
same,GR value,LEE011/Ribociclib; 0.01 µM,0.664 GR
same,GR value,LEE011/Ribociclib; 0.03162 µM,0.633 GR
same,GR value,LEE011/Ribociclib; 0.1 µM,0.549 GR
same,GR value,LEE011/Ribociclib; 0.3162 µM,0.552 GR
same,GR value,LEE011/Ribociclib; 1 µM,0.446 GR
same,GR value,LEE011/Ribociclib; 3.162 µM,0.306 GR
same,GR value,LEE011/Ribociclib; 10 µM,0.11 GR
same,GR value,THZ531; 0.0001 µM,1.01 GR
same,GR value,THZ531; 0.0003162 µM,0.964 GR
same,GR value,THZ531; 0.001 µM,0.898 GR
same,GR value,THZ531; 0.003162 µM,0.954 GR
same,GR value,THZ531; 0.01 µM,0.931 GR
same,GR value,THZ531; 0.03162 µM,0.968 GR
same,GR value,THZ531; 0.1 µM,0.814 GR
same,GR value,THZ531; 0.3162 µM,0.438 GR
same,GR value,THZ531; 1 µM,-0.377 GR
same,GR value,THZ1; 0.0001 µM,1.02 GR
same,GR value,THZ1; 0.0003162 µM,1 GR
same,GR value,THZ1; 0.001 µM,1.01 GR
same,GR value,THZ1; 0.003162 µM,0.822 GR
same,GR value,THZ1; 0.01 µM,0.39 GR
same,GR value,THZ1; 0.03162 µM,-0.094 GR
same,GR value,THZ1; 0.1 µM,-0.2 GR
same,GR value,THZ1; 0.3162 µM,-0.209 GR
same,GR value,Flavopiridol [8]; 0.0001 µM,1.04 GR
same,GR value,Flavopiridol [8]; 0.0003162 µM,1 GR
same,GR value,Flavopiridol [8]; 0.001 µM,1.01 GR
same,GR value,Flavopiridol [8]; 0.003162 µM,0.931 GR
same,GR value,Flavopiridol [8]; 0.01 µM,0.838 GR
same,GR value,Flavopiridol [8]; 0.03162 µM,0.614 GR
same,GR value,Flavopiridol [8]; 0.1 µM,0.0558 GR
same,GR value,Flavopiridol [8]; 0.3162 µM,-0.172 GR
same,GR value,Flavopiridol [8]; 1 µM,-0.307 GR
PDX1258,"GR50, 72 h",R0-3306,5.5 µM
same,"GR50, 72 h",Paclitaxel,0.00215 µM
same,"GR50, 72 h",BSJ-03-123 [1],4.91 µM
same,"GR50, 72 h",BVD523,4.62 µM
same,"GR50, 72 h",[2],> 10 µM
same,"GR50, 72 h",Neratinib/HKI272,1.1 µM
same,"GR50, 72 h",Flavopiridol [3],0.0943 µM
same,"GR50, 72 h",[4],0.0944 µM
same,"GR50, 72 h",AZD5363,3.52 µM
same,GR value,YKL-5-124; 0.001 µM,0.686 GR
same,GR value,YKL-5-124; 0.003162 µM,0.363 GR
same,GR value,YKL-5-124; 0.01 µM,0.231 GR
same,GR value,YKL-5-124; 0.03162 µM,0.0382 GR
same,GR value,YKL-5-124; 0.1 µM,0.0596 GR
same,GR value,YKL-5-124; 0.3162 µM,-0.0277 GR
same,GR value,YKL-5-124; 1 µM,-0.147 GR
same,GR value,YKL-5-124; 3.162 µM,-0.294 GR
same,GR value,YKL-5-124; 10 µM,-0.519 GR
same,GR value,BSJ-03-123 [5]; 0.001 µM,1.13 GR
same,GR value,BSJ-03-123 [5]; 0.003162 µM,0.919 GR
same,GR value,BSJ-03-123 [5]; 0.01 µM,1.2 GR
same,GR value,BSJ-03-123 [5]; 0.03162 µM,1.29 GR
same,GR value,BSJ-03-123 [5]; 0.1 µM,1.08 GR
same,GR value,BSJ-03-123 [5]; 0.3162 µM,1.02 GR
same,GR value,BSJ-03-123 [5]; 1 µM,0.916 GR
same,GR value,BSJ-03-123 [5]; 3.162 µM,0.819 GR
same,GR value,BSJ-03-123 [5]; 10 µM,-0.415 GR
same,GR value,[6]; 0.001 µM,1.06 GR
same,GR value,[6]; 0.003162 µM,1.1 GR
same,GR value,[6]; 0.01 µM,1.03 GR
same,GR value,[6]; 0.03162 µM,0.961 GR
same,GR value,[6]; 0.1 µM,0.911 GR
same,GR value,[6]; 0.3162 µM,0.719 GR
same,GR value,[6]; 1 µM,0.375 GR
same,GR value,[6]; 3.162 µM,-0.0697 GR
same,GR value,[6]; 10 µM,-0.334 GR
same,GR value,[7]; 0.0001 µM,1.05 GR
same,GR value,[7]; 0.0003162 µM,1.08 GR
same,GR value,[7]; 0.001 µM,1.13 GR
same,GR value,[7]; 0.003162 µM,1.08 GR
same,GR value,[7]; 0.01 µM,0.655 GR
same,GR value,[7]; 0.03162 µM,-0.491 GR
same,GR value,[7]; 0.1 µM,-0.587 GR
same,GR value,[7]; 0.3162 µM,-0.579 GR
same,GR value,[7]; 1 µM,-0.628 GR
same,GR value,LEE011/Ribociclib; 0.001 µM,1.11 GR
same,GR value,LEE011/Ribociclib; 0.003162 µM,1.12 GR
same,GR value,LEE011/Ribociclib; 0.01 µM,0.914 GR
same,GR value,LEE011/Ribociclib; 0.03162 µM,1.18 GR
same,GR value,LEE011/Ribociclib; 0.1 µM,1.19 GR
same,GR value,LEE011/Ribociclib; 0.3162 µM,1.11 GR
same,GR value,LEE011/Ribociclib; 1 µM,0.93 GR
same,GR value,LEE011/Ribociclib; 3.162 µM,1.14 GR
same,GR value,LEE011/Ribociclib; 10 µM,1.02 GR
same,GR value,THZ531; 0.0001 µM,0.889 GR
same,GR value,THZ531; 0.0003162 µM,1.04 GR
same,GR value,THZ531; 0.001 µM,0.96 GR
same,GR value,THZ531; 0.003162 µM,1.07 GR
same,GR value,THZ531; 0.01 µM,1.07 GR
same,GR value,THZ531; 0.03162 µM,0.765 GR
same,GR value,THZ531; 0.1 µM,-0.303 GR
same,GR value,THZ531; 0.3162 µM,-0.601 GR
same,GR value,THZ531; 1 µM,-0.509 GR
same,GR value,THZ1; 0.0001 µM,1.11 GR
same,GR value,THZ1; 0.0003162 µM,1.16 GR
same,GR value,THZ1; 0.001 µM,1.17 GR
same,GR value,THZ1; 0.003162 µM,0.923 GR
same,GR value,THZ1; 0.01 µM,0.918 GR
same,GR value,THZ1; 0.03162 µM,-0.295 GR
same,GR value,THZ1; 0.1 µM,-0.51 GR
same,GR value,THZ1; 0.3162 µM,-0.509 GR
same,GR value,THZ1; 1 µM,-0.665 GR
same,GR value,Flavopiridol [8]; 0.0001 µM,1.03 GR
same,GR value,Flavopiridol [8]; 0.0003162 µM,0.973 GR
same,GR value,Flavopiridol [8]; 0.001 µM,1.02 GR
same,GR value,Flavopiridol [8]; 0.003162 µM,1.07 GR
same,GR value,Flavopiridol [8]; 0.01 µM,1.18 GR
same,GR value,Flavopiridol [8]; 0.03162 µM,0.831 GR
same,GR value,Flavopiridol [8]; 0.1 µM,0.5 GR
same,GR value,Flavopiridol [8]; 0.3162 µM,-0.24 GR
same,GR value,Flavopiridol [8]; 1 µM,-0.402 GR
